In data set [1] the test system is Pseudomonas aeruginosa. The experiment in a line: Antibacterial activity against Pseudomonas aeruginosa PAO1 infected in Caenorhabditis elegans assessed as worm survival rate at 2.5 ug/ml incubated for 60 hrs by bright-field microscopy relative to control. The class given is functional.
Data set [2] relates to Pseudomonas aeruginosa. The experiment in a line: Synergistic antibacterial activity against Pseudomonas aeruginosa PAO1 infected in Caenorhabditis elegans assessed as worm survival rate at 2.5 ug/ml incubated for 72 hrs in presence of compound 16e by bright-field microscopy relative to control. The class given is functional.
Data set [3] is described as follows: Inhibition of quorum sensing system in Pseudomonas aeruginosa PAO1 assessed as inhibition of pyocyanin production incubated for 24 hrs by optical density based analysis.
Data set [4] is described as follows: Inhibition of quorum sensing system in Pseudomonas aeruginosa PAO1 assessed as inhibition of pyocyanin production at 10 uM incubated for 24 hrs by optical density based analysis relative to control.
Data set [5] can be described thus: Inhibition of quorum sensing system in Pseudomonas aeruginosa PAO1 assessed as inhibition of pyocyanin production at 0.625 uM incubated for 24 hrs by optical density based analysis relative to control.
The nature of data set [6]: Inhibition of quorum sensing system in Pseudomonas aeruginosa PAO1 assessed as inhibition of elastase production at 10 uM incubated for 24 hrs by elastin-congo red dye based optical density based analysis relative to control.
Data set [7] in a line: Inhibition of quorum sensing system in Pseudomonas aeruginosa PAO1 assessed as inhibition of rhamnolipid production at 0.625 to 20 uM incubated for 24 hrs by optical density based analysis. The note with it: dose 0.625-20 µM.
The test system of data set [8] is Pseudomonas aeruginosa. Nature of the data set: Antivirulence activity against Pseudomonas aeruginosa clinical isolate 1121 assessed as reduction of pyocyanin production at 10 uM incubated for 24 hrs by optical density based analysis relative to control. The arrangement: scale not given: the % may be the effect or the level left. It counts as functional.
Data set [9] has as its system Pseudomonas aeruginosa. The experiment in a line: Antivirulence activity against Pseudomonas aeruginosa PA14 assessed as reduction of pyocyanin production at 10 uM incubated for 24 hrs by optical density based analysis relative to control. The class given is functional. The arrangement: scale not given: the % may be the effect or the level left.
Data set [10] has as its system Pseudomonas aeruginosa. The experiment in a line: Antivirulence activity against Pseudomonas aeruginosa clinical isolate FB assessed as reduction of pyocyanin production at 10 uM incubated for 24 hrs by optical density based analysis relative to control. The arrangement: scale not given: the % may be the effect or the level left. The class given is functional.
Data set [11] in a line: Inhibition of quorum sensing system in Pseudomonas aeruginosa PAO1 transfected with lasB-gfp reporter assessed as decrease in GFP fluorescence expression at 0.625 to 10 uM incubated for 16 hrs by microplate reader assay. Particulars: dose 0.625-10 µM.
A short description of data set [12]: Inhibition of quorum sensing system in Pseudomonas aeruginosa PAO1 transfected with rhlA-gfp reporter assessed as decrease in GFP fluorescence expression at 0.625 to 10 uM incubated for 16 hrs by microplate reader assay. The note with it: dose 0.625-10 µM.
A short description of data set [13]: Inhibition of quorum sensing system in Pseudomonas aeruginosa PAO1 transfected with pqsA-gfp reporter assessed as decrease in GFP fluorescence expression incubated for 16 hrs by microplate reader assay.
Data set [14] in a line: Inhibition of quorum sensing system in Pseudomonas aeruginosa PAO1 transfected with GFP reporter assessed as decrease in GFP fluorescence expression at 1.25 to 10 uM incubated for 16 hrs by microplate reader assay. Particulars: dose 1.25-10 µM.
A short description of data set [15]: Binding affinity to recombinant PqsR LBD (94 to 332 residues) (unknown origin) expressed in Escherichia coli BL21 (DE3) assessed as dissociation constant by isothermal titration calorimetry. Background: ITC needs no label: the signal is the heat of the interaction.
The test system of data set [16] is Pseudomonas aeruginosa. The experiment in a line: Antibacterial activity against Pseudomonas aeruginosa PAO1 assessed as inhibition of biofilm formation incubated for 24 hrs by crystal violet staining analysis. It counts as functional, organism-based.
The subject of data set [17] is Pseudomonas aeruginosa. The experiment in a line: Antibacterial activity against Pseudomonas aeruginosa PAO1 assessed as inhibition of biofilm formation at 50 uM incubated for 24 hrs by crystal violet staining analysis relative to control. It counts as functional. The arrangement: scale not given: the % may be the effect or the level left.
Data set [18] can be described thus: Metal chelating activity assessed as compound-Fe3+ complex formation by measuring fluorescence signal by fluorescence spectrophotometry.
Data set [19] concerns Pseudomonas aeruginosa. Nature of the data set: Inhibition of iron homeostasis in Pseudomonas aeruginosa PAO1 assessed as decrease in pyoverdine production at 5 to 20 uM incubated for 24 hrs by fluorescence based microplate reader analysis. It counts as functional, organism-based. Particulars: dose 5-20 µM.
Data set [20] has as its system Pseudomonas aeruginosa. Nature of the data set: Inhibition of iron homeostasis in Pseudomonas aeruginosa PAO1 assessed as decrease in pyochelin production at 1.25 to 20 uM incubated for 24 hrs by fluorescence based microplate reader analysis. The class given is functional, organism-based. Particulars: dose 1.25-20 µM.
Data set [21] relates to Pseudomonas aeruginosa. Nature of the data set: Anti-motility activity against Pseudomonas aeruginosa PAO1 assessed as reduction in swarming incubated for 16 hrs by crystal violet staining analysis. It counts as functional, organism-based.
In data set [22] the test system is Pseudomonas aeruginosa. The experiment in a line: Anti-motility activity against Pseudomonas aeruginosa PAO1 assessed as reduction in swimming incubated for 16 hrs by crystal violet staining analysis. It counts as functional, organism-based.
In data set [23] the test system is Pseudomonas aeruginosa. Nature of the data set: Anti-motility activity against Pseudomonas aeruginosa PAO1 assessed as reduction in twitching incubated for 16 hrs by crystal violet staining analysis. It counts as functional, organism-based.
The test system of data set [24] is Pseudomonas aeruginosa. The experiment in a line: Synergistic antibacterial activity against Pseudomonas aeruginosa PAO1 assessed as reduction in bacterial viability at 10 uM incubated for 24 hrs in presence of ciprofloxacin at 1/2 to 1/8 times of MIC. It counts as functional, organism-based.
For data set [25], the system named is Pseudomonas aeruginosa. Nature of the data set: Synergistic antibacterial activity against Pseudomonas aeruginosa clinical isolate FB assessed as reduction in bacterial viability at 10 uM incubated for 24 hrs in presence of ciprofloxacin at 1/2 to 1/8 times of MIC. It counts as functional, organism-based.
The subject of data set [26] is Pseudomonas aeruginosa. The experiment in a line: Synergistic antibacterial activity against Pseudomonas aeruginosa clinical isolate 1121 assessed as reduction in bacterial viability at 10 uM incubated for 24 hrs in presence of ciprofloxacin at 1/2 to 1/8 times of MIC. The class given is functional, organism-based.
Data set [27] relates to Pseudomonas aeruginosa. The experiment in a line: Synergistic antibacterial activity against Pseudomonas aeruginosa clinical isolate 1129 assessed as reduction in bacterial viability at 10 uM incubated for 24 hrs in presence of ciprofloxacin at 1/2 to 1/8 times of MIC. It counts as functional, organism-based.
In data set [28] the test system is Pseudomonas aeruginosa. Nature of the data set: Synergistic antibacterial activity against Pseudomonas aeruginosa PAO1 assessed as reduction in bacterial viability at 10 uM incubated for 24 hrs in presence of tobramycin at 1/2 to 1/8 times of MIC. It counts as functional, organism-based.
In data set [29] the test system is Pseudomonas aeruginosa. The experiment in a line: Synergistic antibacterial activity against Pseudomonas aeruginosa clinical isolate FB assessed as reduction in bacterial viability at 10 uM incubated for 24 hrs in presence of tobramycin at 1/2 to 1/8 times of MIC. It counts as functional, organism-based.
In data set [30] the test system is Pseudomonas aeruginosa. The experiment in a line: Synergistic antibacterial activity against Pseudomonas aeruginosa clinical isolate 1121 assessed as reduction in bacterial viability at 10 uM incubated for 24 hrs in presence of tobramycin at 1/2 to 1/8 times of MIC. It counts as functional, organism-based.
Data set [31] has as its system Pseudomonas aeruginosa. The experiment in a line: Synergistic antibacterial activity against Pseudomonas aeruginosa clinical isolate 1129 assessed as reduction in bacterial viability at 10 uM incubated for 24 hrs in presence of tobramycin at 1/2 to 1/8 times of MIC. It counts as functional, organism-based.
The test system of data set [32] is Pseudomonas aeruginosa. The experiment in a line: Synergistic antibacterial activity against Pseudomonas aeruginosa clinical isolate 1167 assessed as reduction in bacterial viability at 10 uM incubated for 24 hrs in presence of ciprofloxacin at 1/2 to 1/8 times of MIC. It counts as functional, organism-based.
Data set [33] deals with Pseudomonas aeruginosa. The experiment in a line: Synergistic antibacterial activity against Pseudomonas aeruginosa clinical isolate 1167 assessed as reduction in bacterial viability at 10 uM incubated for 24 hrs in presence of tobramycin at 1/2 to 1/8 times of MIC. The class given is functional, organism-based.
The subject of data set [34] is Vero. The experiment in a line: Cytotoxicity against African green monkey Vero cells at 1.56 to 50 uM incubated for 24 hrs by MTT assay. The note with it: chlorocebus sabaeus, dose 1.56-50 µM. The class given is toxicity, cell-based.
The test system of data set [35] is Vero. Nature of the data set: Cytotoxicity against African green monkey Vero cells at 100 uM incubated for 24 hrs by MTT assay. The class given is toxicity, cell-based. The note with it: chlorocebus sabaeus. A general note: Tetrazolium dyes change colour on reduction, which living cells bring about.
Data set [36] in a line: Toxicity in Caenorhabditis elegans assessed as effect on survival at 100 uM incubated for 60 hrs by bright-field microscopy.
The test system of data set [37] is Pseudomonas aeruginosa. Nature of the data set: Antibacterial activity against Pseudomonas aeruginosa PAO1 infected in Caenorhabditis elegans assessed as increase in worm survival by measuring survival time at 10 uM by bright-field microscopy. The class given is functional.
In data set [38] the test system is Pseudomonas aeruginosa. The experiment in a line: Antibacterial activity against Pseudomonas aeruginosa PAO1 infected in Caenorhabditis elegans assessed as increase in worm survival by measuring survival time at 50 uM by bright-field microscopy. It counts as functional.
Data set [39] has as its system Pseudomonas aeruginosa. The experiment in a line: Antibacterial activity against Pseudomonas aeruginosa PAO1 infected in Caenorhabditis elegans assessed as worm survival rate at 0.125 ug/ml incubated for 72 hrs by bright-field microscopy relative to control. It counts as functional.
The test system of data set [40] is Pseudomonas aeruginosa. The experiment in a line: Synergistic antibacterial activity against Pseudomonas aeruginosa PAO1 infected in Caenorhabditis elegans assessed as worm survival rate at 10 uM incubated for 72 hrs in presence of ciprofloxacin by bright-field microscopy relative to control. It counts as functional.
The test system of data set [41] is Pseudomonas aeruginosa. Nature of the data set: Synergistic antibacterial activity against Pseudomonas aeruginosa PAO1 infected in Caenorhabditis elegans assessed as worm survival rate at 50 uM incubated for 72 hrs in presence of ciprofloxacin by bright-field microscopy relative to control. It counts as functional.
Data set [42] relates to Pseudomonas aeruginosa. The experiment in a line: Synergistic antibacterial activity against Pseudomonas aeruginosa PAO1 infected in Caenorhabditis elegans assessed as worm survival rate at 10 uM incubated for 72 hrs in presence of tobramycin by bright-field microscopy relative to control. It counts as functional.
Data set [43] has as its system Pseudomonas aeruginosa. Nature of the data set: Synergistic antibacterial activity against Pseudomonas aeruginosa PAO1 infected in Caenorhabditis elegans assessed as worm survival rate at 50 uM incubated for 72 hrs in presence of tobramycin by bright-field microscopy relative to control. It counts as functional.

Calls of active or inactive are those of the source. The rule behind the calls is not given here.

On to `NC[C@H]1O[C@H](O[C@H]2[C@H](O)[C@@H](O[C@H]3O[C@H](CO)[C@@H](O)[C@H](N)[C@H]3O)[C@H](N)C[C@@H]2N)[C@H](N)C[C@@H]1O` [TOBRAMYCIN], for which the results for the survival at 2.5 µg/mL in the data set on Pseudomonas aeruginosa [1] and with Pseudomonas aeruginosa [2] were 18.1% and 46.7%, respectively.

Regarding `Cc1cc(=O)c(O)c(CNCc2cn(-c3ccc(Oc4ccccc4)cc3)nn2)n1C`, the IC50 (usually the concentration that inhibits the measured activity by half) in data set [3] is 2700 nM; in data set [13], 3700 nM. Moreover, the inhibition (usually the percentage by which the read-out fell short of the control) in [4] was found to be 69.9%; in [5] it was 30%; in [6] it was 26.7%. Besides, the inhibition entry (in data set [7]; in [12]; in [14]; in the data set with Pseudomonas aeruginosa [19]; with Pseudomonas aeruginosa [20]) was “inactive” throughout. Further, the Activity in the data set on Pseudomonas aeruginosa [8] is 41.1%; with Pseudomonas aeruginosa [9], 50.9%; in the data set on Pseudomonas aeruginosa [10], 32.2%; in the data set with Pseudomonas aeruginosa [16], “Dose-Dependent Effect”; in the data set on Pseudomonas aeruginosa [17], approximately 50%; in data set [18], 22.4. In addition, the Activity entry is “Dose-Dependent Effect” in the data set with Pseudomonas aeruginosa [21]; “Dose-Dependent Effect” in the data set with Pseudomonas aeruginosa [22]; “Dose-Dependent Effect” with Pseudomonas aeruginosa [23]; “Non-Toxic” with Vero [34]; “Toxic” in the data set with Vero [35]; “Non-Toxic” in [36]. In addition, the inhibition entry in data set [11] is “Active”. Further, the Kd (in general, the free concentration of one partner at which half of the binding sites on the other are occupied at equilibrium, for simple one-to-one binding) in data set [15] amounted to 1100 nM. Moreover, the result in the data set on Pseudomonas aeruginosa [24], in the data set with Pseudomonas aeruginosa [25], in the data set with Pseudomonas aeruginosa [26], in the data set with Pseudomonas aeruginosa [27], with Pseudomonas aeruginosa [28] and in the data set on Pseudomonas aeruginosa [29] was Active. Also, the outcome in the data set on Pseudomonas aeruginosa [30] and with Pseudomonas aeruginosa [31] was Active. Further, the result in the data set with Pseudomonas aeruginosa [32] and with Pseudomonas aeruginosa [33] was inactive. For the same molecule, the Survival with Pseudomonas aeruginosa [37] turned out to be 30 h; with Pseudomonas aeruginosa [38] it was 36 h. Further, the survival at 0.125 µg/mL in the data set with Pseudomonas aeruginosa [39] is 13.1%. The survival at 10 µM worked out at 35.7% with Pseudomonas aeruginosa [40] and 46.7% in the data set on Pseudomonas aeruginosa [42]. The survival at 50 µM was found to be 87.1% in the data set on Pseudomonas aeruginosa [41] and 82.3% with Pseudomonas aeruginosa [43].

The record behind these values is ChEMBL document CHEMBL5344424, “3-Hydroxypyridin-4(1H)-one Derivatives as pqs Quorum Sensing Inhibitors Attenuate Virulence and Reduce Antibiotic Resistance in Pseudomonas aeruginosa” (J Med Chem, 2023).
